According to PubChem BioAssay (NCI):
Where “and” joins values, the source holds several entries; their conditions need not be identical. Equal values may be shown once.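 Growth conditions: 96-well plates. Treatment: test compound, 48 hours, 5 concentrations. Analysis: linear interpolation between bracketing concentrations; unreached endpoints set to highest concentration. GI50 is the concentration that inhibits growth by half. At the TGI there is no net growth.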

System: SNB-78 CNS
Experiment: NCI tumour cell line growth inhibition, 48 h

| SMILES | TGI [µM] |
| --- | --- |
| CCOC1=C2C(=O)OC(=O)C2C2CCCCC2=C1 (configuration not stated) | > 100 |
| Cc1cc2c(C)nn(Cc3ccccc3)c2c(C(N)=O)c1C | > 100 |
| c1ccc(C(c2ccccc2)c2cccnc2)cc1 | > 100 |
| COC(=O)/C(=N\NC(=O)C[N+](C)(C)C)C(C(=O)OC)C(=O)C(=O)Nc1ccccc1C(N)=O (configuration not stated) | > 100 |
| O=C1Nc2nc3ccccc3n2N=C2CCCC12 (configuration not stated) | > 100 |
| O=c1c2ccccc2c(=O)n2n1CC=CC2 | > 100 |
| c1cc2n(n1)CCN2 | > 8740 |
| O=CN/C=C/c1cccc(O)c1 | > 100 |
| CC1CN(c2ccc(Cl)cc2)CC(C)OC(=O)O1 (configuration not stated) | > 100 |
| Nc1ccc2c(SCc3ccc([N+](=O)[O-])cc3)c3ccccc3nc2c1 | 63.7 |
| COCC(O)Cn1ccnc1[N+](=O)[O-] (configuration not stated) | > 100 |
| OCC1C(/C=C/c2ccoc2)ON2CCCC12 (configuration not stated) | > 100 |
| O=C1C2C3C=C4c5ccccc5N(c5ccccc5)C4(C2C(=O)N1c1ccc(Cl)cc1)[C@H]1C(=O)N(c2ccc(Cl)cc2)C(=O)[C@@H]31 (some centres not stated) | > 100 |
| Cc1ccc([N+](=O)[O-])cc1NC(=O)/C(=N/NC(=S)NN)C1SC(=S)NC1=O (configuration not stated) | > 100 |
| CCN(CC)CCOc1ccc(CCc2cc(OC)c(OC)c(OC)c2)cc1 | > 100 |
| O=c1[nH]nc2ccccc2c1Cc1ccccc1 | > 100 |
| O=C(CC(=O)C1=CNc2ccccc2S1)C(=O)Nc1ccc(Cl)cc1 | > 50 |
| Cc1oc2c(C)c3oc(=O)cc(C)c3cc2c1CN1C(=O)C2OCCOCCOCCOCCOCCO[C@H]2C1=O (some centres not stated) | > 100 |

System: LXFL 529 NSCLC
Experiment: NCI tumour cell line growth inhibition, 48 h

| SMILES | GI50 [µM] | TGI [µM] |
| --- | --- | --- |
| N.N.N.N.N.[Cl-].[Co+3].c1ccc(-c2nn[n-]n2)cc1 | > 100 | > 100 |
| COc1cccc2c1C(=O)c1c(O)c3c(c(O)c1C2=O)CC(O)(C(O)CO)CC3OC1CC(N2CCOCC2)C(O)C(C)O1 (configuration not stated) |  | 0.0553 |
| C1COCCN1.C1COCCN1.NC1CCCCC1N.[Cl-].[Pt+2] (configuration not stated) | > 100 | > 100 |
| COC1OC(CBr)C(OC(=O)c2ccccc2)C(O)C1Br (configuration not stated) |  | > 100 |
| C[C@]12CCC(=O)C=C1CC[C@@H]1C2CC[C@]2(C)Nc3c(cnn3-c3ccccc3)CC12 (some centres not stated) |  | > 100 |
| CCOC1=C2C(=O)OC(=O)C2C2CCCCC2=C1 (configuration not stated) |  | > 100 |
| Cc1cc2c(C)nn(Cc3ccccc3)c2c(C(N)=O)c1C |  | > 100 |
| C=CCNC(=O)N(CCCC(NC(C)=O)C(=O)NCc1ccccc1)Cc1ccccc1 (configuration not stated) |  | > 100 |
| C1=CC=C2NCCCCCCCNC3=CC=CC=CC3=NCCCCCCCN=C2C=C1 |  | > 100 |
| COC(=O)/C(=N\NC(=O)C[N+](C)(C)C)C(C(=O)OC)C(=O)C(=O)Nc1ccccc1C(N)=O (configuration not stated) |  | > 100 |
| O=C1Nc2nc3ccccc3n2N=C2CCCC12 (configuration not stated) |  | > 100 |
| O=c1c2ccccc2c(=O)n2n1CC=CC2 |  | > 100 |
| O=CN/C=C/c1cccc(O)c1 |  | > 100 |
| CC1CN(c2ccc(Cl)cc2)CC(C)OC(=O)O1 (configuration not stated) |  | > 100 |
| Nc1ccc2c(SCc3ccc([N+](=O)[O-])cc3)c3ccccc3nc2c1 |  | 18.5 |
| OCC1C(/C=C/c2ccoc2)ON2CCCC12 (configuration not stated) |  | > 100 |
| O=C1C2C3C=C4c5ccccc5N(c5ccccc5)C4(C2C(=O)N1c1ccc(Cl)cc1)[C@H]1C(=O)N(c2ccc(Cl)cc2)C(=O)[C@@H]31 (some centres not stated) |  | > 100 |
| Cc1ccc([N+](=O)[O-])cc1NC(=O)/C(=N/NC(=S)NN)C1SC(=S)NC1=O (configuration not stated) |  | > 100 |
| CCN(CC)CCOc1ccc(CCc2cc(OC)c(OC)c(OC)c2)cc1 |  | > 100 |
| O=C(CC(=O)C1=CNc2ccccc2S1)C(=O)Nc1ccc(Cl)cc1 |  | > 50 |
| Cc1oc2c(C)c3oc(=O)cc(C)c3cc2c1CN1C(=O)C2OCCOCCOCCOCCOCCO[C@H]2C1=O (some centres not stated) |  | > 100 |
| COC(=O)c1ccccc1OCc1cc(=O)oc2ccc(C)cc12 |  | > 100 |

System: RXF-631 renal
Experiment: NCI tumour cell line growth inhibition, 48 h

| SMILES | TGI [µM] |
| --- | --- |
| C[C@]12CCC(=O)C=C1CC[C@@H]1C2CC[C@]2(C)Nc3c(cnn3-c3ccccc3)CC12 (some centres not stated) | > 100 |
| O=C(NC(=O)c1cn(CCN(CCO)C(=O)NCCCCCCNC(=O)N(CCO)CCn2cc(C(=O)NC(=O)OCc3ccccc3)c(=O)[nH]c2=O)c(=O)[nH]c1=O)OCc1ccccc1 | > 100 |
| c1ccc(C(c2ccccc2)c2cccnc2)cc1 | > 100 |
| C1=CC=C2NCCCCCCCNC3=CC=CC=CC3=NCCCCCCCN=C2C=C1 | 25.7 |
| O=C1Nc2nc3ccccc3n2N=C2CCCC12 (configuration not stated) | > 100 |
| Cc1cc(NCCCCCCNc2cc(C)nc3cc(N(C)C)ccc23)c2ccc(N(C)C)cc2n1 | > 100 |
| O=C1C2C3C=C4c5ccccc5N(c5ccccc5)C4(C2C(=O)N1c1ccc(Cl)cc1)[C@H]1C(=O)N(c2ccc(Cl)cc2)C(=O)[C@@H]31 (some centres not stated) | > 100 |
| CCN(CC)CCOc1ccc(CCc2cc(OC)c(OC)c(OC)c2)cc1 | > 100 |
| O=C(CC(=O)C1=CNc2ccccc2S1)C(=O)Nc1ccc(Cl)cc1 | > 50 |
| Cc1oc2c(C)c3oc(=O)cc(C)c3cc2c1CN1C(=O)C2OCCOCCOCCOCCOCCO[C@H]2C1=O (some centres not stated) | 74.2 |
| COC(=O)c1ccccc1OCc1cc(=O)oc2ccc(C)cc12 | > 100 |

System: DLD-1 colon
Experiment: NCI tumour cell line growth inhibition, 48 h

| SMILES | GI50 [µM] | TGI [µM] |
| --- | --- | --- |
| N.N.N.N.N.[Cl-].[Co+3].c1ccc(-c2nn[n-]n2)cc1 | > 100 | > 100 |
| C1COCCN1.C1COCCN1.NC1CCCCC1N.[Cl-].[Pt+2] (configuration not stated) | > 100 | > 100 |
| COC1OC(CBr)C(OC(=O)c2ccccc2)C(O)C1Br (configuration not stated) |  | > 100 |
| C[C@]12CCC(=O)C=C1CC[C@@H]1C2CC[C@]2(C)Nc3c(cnn3-c3ccccc3)CC12 (some centres not stated) |  | > 100 |
| O=C(NC(=O)c1cn(CCN(CCO)C(=O)NCCCCCCNC(=O)N(CCO)CCn2cc(C(=O)NC(=O)OCc3ccccc3)c(=O)[nH]c2=O)c(=O)[nH]c1=O)OCc1ccccc1 |  | > 100 |
| CCOC1=C2C(=O)OC(=O)C2C2CCCCC2=C1 (configuration not stated) |  | > 100 |
| Cc1cc2c(C)nn(Cc3ccccc3)c2c(C(N)=O)c1C |  | > 100 |
| c1ccc(C(c2ccccc2)c2cccnc2)cc1 |  | > 100 |
| C1=CC=C2NCCCCCCCNC3=CC=CC=CC3=NCCCCCCCN=C2C=C1 |  | > 100 |
| COC(=O)/C(=N\NC(=O)C[N+](C)(C)C)C(C(=O)OC)C(=O)C(=O)Nc1ccccc1C(N)=O (configuration not stated) |  | > 100 |
| O=C1Nc2nc3ccccc3n2N=C2CCCC12 (configuration not stated) |  | > 100 |
| O=c1c2ccccc2c(=O)n2n1CC=CC2 |  | > 100 |
| c1cc2n(n1)CCN2 |  | > 10000 |
| O=CN/C=C/c1cccc(O)c1 |  | > 100 |
| CC1CN(c2ccc(Cl)cc2)CC(C)OC(=O)O1 (configuration not stated) |  | > 100 |
| Nc1ccc2c(SCc3ccc([N+](=O)[O-])cc3)c3ccccc3nc2c1 |  | 6.04 |
| OCC1C(/C=C/c2ccoc2)ON2CCCC12 (configuration not stated) |  | > 100 |
| Cc1cc(NCCCCCCNc2cc(C)nc3cc(N(C)C)ccc23)c2ccc(N(C)C)cc2n1 |  | > 100 |
| O=C1C2C3C=C4c5ccccc5N(c5ccccc5)C4(C2C(=O)N1c1ccc(Cl)cc1)[C@H]1C(=O)N(c2ccc(Cl)cc2)C(=O)[C@@H]31 (some centres not stated) |  | > 100 |
| Cc1ccc([N+](=O)[O-])cc1NC(=O)/C(=N/NC(=S)NN)C1SC(=S)NC1=O (configuration not stated) |  | > 100 |
| CCN(CC)CCOc1ccc(CCc2cc(OC)c(OC)c(OC)c2)cc1 |  | > 100 |
| O=c1[nH]nc2ccccc2c1Cc1ccccc1 |  | > 100 |
| O=C(CC(=O)C1=CNc2ccccc2S1)C(=O)Nc1ccc(Cl)cc1 |  | > 50 |
| Cc1oc2c(C)c3oc(=O)cc(C)c3cc2c1CN1C(=O)C2OCCOCCOCCOCCOCCO[C@H]2C1=O (some centres not stated) |  | > 100 |
| COC(=O)c1ccccc1OCc1cc(=O)oc2ccc(C)cc12 |  | > 100 |

System: P388 leukemia
Experiment: NCI tumour cell line growth inhibition, 48 h

| SMILES | TGI [µM] |
| --- | --- |
| c1cc2n(n1)CCN2 | 2770 |

System: MDA-N
Experiment: NCI tumour cell line growth inhibition, 48 h

| SMILES | TGI | GI50 [µM] |
| --- | --- | --- |
| c1ccc(CN2CCC3(CC2)SSC2(CCN(Cc4ccccc4)CC2)S3)cc1 | > 100 µM |  |
| CN(C)CCNC(=O)c1cc([N+](=O)[O-])cc2c1Oc1ccccc1O2 | > 100 µM |  |
| COc1cccc2c1C(=O)c1c(O)c3c(c(O)c1C2=O)CC(O)(C(O)CO)CC3OC1CC(N2CCOCC2)C(O)C(C)O1 (configuration not stated) | 0.1 µM |  |
| O=C(O)C1OC1(c1cccc(Cl)c1)c1ccccc1Cl (configuration not stated) | 65.6 µM |  |
| COC1/C=C/C(C)C(C(C)C(OC)C(C)CCC(=O)C(C)C(C/C=C/N(C)C=O)OC)OC(=O)/C=C/C=C(\C)CC(OC)CC2=CC(=O)O[C@H](C2)C(C)C(OC)CC(OC)/C=C/C(C)C(OC)C1 (some centres not stated) | 1.11 µM | 0.0472 |
| C#CC1(O)C(COP(=O)(O)OC(COCCCCCCCCCCCCCCCCCC)COP(=O)(O)OCC2OC(n3cc(F)c(=O)[nH]c3=O)CC2O)OC(n2ccc(N)nc2=O)C1O (configuration not stated) | 12.4 µM and 13.7 µM |  |
| COc1cc2oc3cc(=O)cc4oc(-c5ccccc5)cc(c2c2c1CCC(c1ccccc1)O2)c43 (configuration not stated) | > 100 µM |  |
| c1cc2n(n1)CCN2 | > 10000 µM |  |
| O=CN/C=C/c1cccc(O)c1 | > 85 µM |  |
| Nc1ccc2c(SCc3ccc([N+](=O)[O-])cc3)c3ccccc3nc2c1 | 31.1 µM |  |
| COc1c(O)cc2oc(-c3ccc(O)cc3)cc(=O)c2c1O | > 100 µM |  |
| O=c1cc(-c2ccccc2F)[nH]c2ccc(N3CCCC3)cc12 |  | < 0.001 |
| COc1cc2ccccc2oc1=O | > 100 µM |  |
| N#CCCN(CCCN(CCCN(C(=O)Nc1ccccc1)c1ccccc1)C(=O)Nc1ccccc1)C(=O)Nc1ccccc1 | > 100 µM | > 100 |
| COc1ccc2c(=O)cc(-c3ccncc3)oc2c1OC | 98.9 µM |  |
| CC(=O)C(=Cc1ccc(C=C(C(C)=O)C(C)=O)cc1)C(C)=O | 5.94 µM |  |
| COC(=O)c1ccccc1OCc1cc(=O)oc2ccc(C)cc12 | > 100 µM |  |
| O=C(O)c1cc2ccc3ccccc3c2oc1=O | > 100 µM |  |
| O=[N+]([O-])c1ccc2c(c1)Cc1cc(N=Cc3ccc4c(c3)OCO4)ccc1-2 | > 100 µM |  |
